Values after ≈ are worked out from the molar mass of the structure shown.
Experiments:
Format in all cases: functional
Streptococcus pneumoniae [1] = test: Antibacterial activity against erythromycin-resistant Streptococcus pneumoniae A22072 expressing mefA gene
Staphylococcus aureus [2] = test: Antibacterial activity against erythromycin-susceptible Staphylococcus aureus ATCC 25923
Streptococcus pneumoniae [3] = test: Antibacterial activity against erythromycin-resistant Streptococcus pneumoniae AB11 expressing ermB/mefA gene
Streptococcus pneumoniae [4] = test: Antibacterial activity against erythromycin-resistant Streptococcus pneumoniae B1 expressing ermB gene
Streptococcus pneumoniae [5] = test: Antibacterial activity against erythromycin-susceptible Streptococcus pneumoniae ATCC 49619
Streptococcus pyogenes [6] = test: Antibacterial activity against erythromycin-susceptible Streptococcus pyogenes isolate S2
Pseudomonas aeruginosa = test: Antibacterial activity against Pseudomonas aeruginosa ATCC 27853
Streptococcus pyogenes [7] = test: Antibacterial activity against erythromycin-resistant Streptococcus pyogenes isolate R2
Staphylococcus aureus [8] = test: Antibacterial activity against methicillin-susceptible Staphylococcus aureus ATCC 29213
Escherichia coli = test: Antibacterial activity against Escherichia coli ATCC 25922

CC[C@H]1OC(=O)[C@H](C)[C@@H](O[C@H]2C[C@@](C)(OC)[C@@H](OC(=O)NCc3cn(Cc4ccc(C)cc4)nn3)[C@H](C)O2)[C@H](C)[C@@H](O[C@@H]2O[C@H](C)C[C@H](N(C)C)[C@H]2O)[C@](C)(O)C[C@@H](C)CN(C)[C@H](C)[C@@H](OC(=O)NCc2ccccc2)[C@]1(C)O
MIC (Streptococcus pneumoniae [1]): 0.125 µg/mL (≈ 0.113 µM) | MIC (Staphylococcus aureus [2]): 0.5 µg/mL (≈ 0.45 µM) | MIC (Streptococcus pneumoniae [3]): 0.25 µg/mL (≈ 0.225 µM) | MIC (Streptococcus pneumoniae [4]): 0.25 µg/mL (≈ 0.225 µM) | MIC (Streptococcus pneumoniae [5]): 0.125 µg/mL (≈ 0.113 µM) | MIC (Streptococcus pyogenes [6]): < 0.002 µg/mL | MIC (Pseudomonas aeruginosa): 32 µg/mL (≈ 28.8 µM) | MIC (Streptococcus pyogenes [7]): 32 µg/mL (≈ 28.8 µM) | MIC (Staphylococcus aureus [8]): 16 µg/mL (≈ 14.4 µM) | MIC (Escherichia coli): 32 µg/mL (≈ 28.8 µM)

CC[C@H]1OC(=O)[C@H](C)[C@@H](O[C@H]2C[C@@](C)(OC)[C@@H](OC(=O)NCc3cn(Cc4ccccc4)nn3)[C@H](C)O2)[C@H](C)[C@@H](O[C@@H]2O[C@H](C)C[C@H](N(C)C)[C@H]2O)[C@](C)(O)C[C@@H](C)CN(C)[C@H](C)[C@@H](OC(=O)NCc2ccncc2)[C@]1(C)O
MIC (Streptococcus pneumoniae [1]): 0.06 µg/mL (≈ 0.0547 µM) | MIC (Staphylococcus aureus [2]): 1 µg/mL (≈ 0.911 µM) | MIC (Streptococcus pneumoniae [3]): 0.25 µg/mL (≈ 0.228 µM) | MIC (Streptococcus pneumoniae [4]): 0.125 µg/mL (≈ 0.114 µM) | MIC (Streptococcus pneumoniae [5]): 0.5 µg/mL (≈ 0.456 µM) | MIC (Streptococcus pyogenes [6]): 0.03 µg/mL (≈ 0.0273 µM) | MIC (Pseudomonas aeruginosa): 64 µg/mL (≈ 58.3 µM) | MIC (Streptococcus pyogenes [7]): 32 µg/mL (≈ 29.2 µM) | MIC (Staphylococcus aureus [8]): 32 µg/mL (≈ 29.2 µM) | MIC (Escherichia coli): 32 µg/mL (≈ 29.2 µM)

CC[C@H]1OC(=O)[C@H](C)[C@@H](O[C@H]2C[C@@](C)(OC)[C@@H](OC(=O)NCc3cn(Cc4ccccc4)nn3)[C@H](C)O2)[C@H](C)[C@@H](O[C@@H]2O[C@H](C)C[C@H](N(C)C)[C@H]2O)[C@](C)(O)C[C@@H](C)CN(C)[C@H](C)[C@@H](OC(=O)NCCc2ccccc2)[C@]1(C)O
MIC (Streptococcus pneumoniae [1]): 0.125 µg/mL (≈ 0.113 µM) | MIC (Staphylococcus aureus [2]): 0.25 µg/mL (≈ 0.225 µM) | MIC (Streptococcus pneumoniae [3]): 0.25 µg/mL (≈ 0.225 µM) | MIC (Streptococcus pneumoniae [4]): 0.25 µg/mL (≈ 0.225 µM) | MIC (Streptococcus pneumoniae [5]): 0.125 µg/mL (≈ 0.113 µM) | MIC (Streptococcus pyogenes [6]): < 0.002 µg/mL | MIC (Pseudomonas aeruginosa): 8 µg/mL (≈ 7.2 µM) | MIC (Streptococcus pyogenes [7]): 32 µg/mL (≈ 28.8 µM) | MIC (Staphylococcus aureus [8]): 16 µg/mL (≈ 14.4 µM) | MIC (Escherichia coli): 16 µg/mL (≈ 14.4 µM)

CC[C@H]1OC(=O)[C@H](C)[C@@H](O[C@H]2C[C@@](C)(OC)[C@@H](OC(=O)NCc3cn(Cc4c(Cl)cccc4Cl)nn3)[C@H](C)O2)[C@H](C)[C@@H](O[C@@H]2O[C@H](C)C[C@H](N(C)C)[C@H]2O)[C@](C)(O)C[C@@H](C)CN(C)[C@H](C)[C@@H](OC(=O)NCc2ccccc2)[C@]1(C)O
MIC (Streptococcus pneumoniae [1]): 0.25 µg/mL (≈ 0.215 µM) | MIC (Staphylococcus aureus [2]): 0.25 µg/mL (≈ 0.215 µM) | MIC (Streptococcus pneumoniae [3]): 0.25 µg/mL (≈ 0.215 µM) | MIC (Streptococcus pneumoniae [4]): 0.25 µg/mL (≈ 0.215 µM) | MIC (Streptococcus pneumoniae [5]): 0.125 µg/mL (≈ 0.107 µM) | MIC (Streptococcus pyogenes [6]): < 0.002 µg/mL | MIC (Pseudomonas aeruginosa): 32 µg/mL (≈ 27.5 µM) | MIC (Streptococcus pyogenes [7]): 64 µg/mL (≈ 54.9 µM) | MIC (Staphylococcus aureus [8]): 16 µg/mL (≈ 13.7 µM) | MIC (Escherichia coli): 32 µg/mL (≈ 27.5 µM)

CC[C@H]1OC(=O)[C@H](C)[C@@H](O[C@H]2C[C@@](C)(OC)[C@@H](OC(=O)NCc3cn(C4CCCCC4)nn3)[C@H](C)O2)[C@H](C)[C@@H](O[C@@H]2O[C@H](C)C[C@H](N(C)C)[C@H]2O)[C@](C)(O)C[C@@H](C)CN(C)[C@H](C)[C@H]2OC(=O)O[C@@]21C
MIC (Streptococcus pneumoniae [1]): 1 µg/mL (≈ 1.02 µM) | MIC (Staphylococcus aureus [2]): 16 µg/mL (≈ 16.3 µM) | MIC (Streptococcus pneumoniae [3]): 4 µg/mL (≈ 4.08 µM) | MIC (Streptococcus pneumoniae [4]): 8 µg/mL (≈ 8.15 µM) | MIC (Streptococcus pneumoniae [5]): 1 µg/mL (≈ 1.02 µM) | MIC (Streptococcus pyogenes [6]): 0.25 µg/mL (≈ 0.255 µM) | MIC (Pseudomonas aeruginosa): 64 µg/mL (≈ 65.2 µM) | MIC (Streptococcus pyogenes [7]): 32 µg/mL (≈ 32.6 µM) | MIC (Staphylococcus aureus [8]): 64 µg/mL (≈ 65.2 µM) | MIC (Escherichia coli): 128 µg/mL (≈ 130 µM)

CC[C@H]1OC(=O)[C@H](C)[C@@H](O[C@H]2C[C@@](C)(OC)[C@@H](OC(=O)NCc3cn(Cc4ccccc4)nn3)[C@H](C)O2)[C@H](C)[C@@H](O[C@@H]2O[C@H](C)C[C@H](N(C)C)[C@H]2O)[C@](C)(O)C[C@@H](C)CN(C)[C@H](C)[C@@H](OC(=O)NCc2ccccc2)[C@]1(C)O
MIC (Streptococcus pneumoniae [1]): 0.25 µg/mL (≈ 0.228 µM) | MIC (Staphylococcus aureus [2]): 0.016 µg/mL (≈ 0.0146 µM) | MIC (Streptococcus pneumoniae [3]): 0.25 µg/mL (≈ 0.228 µM) | MIC (Streptococcus pneumoniae [4]): 0.25 µg/mL (≈ 0.228 µM) | MIC (Streptococcus pneumoniae [5]): 0.125 µg/mL (≈ 0.114 µM) | MIC (Streptococcus pyogenes [6]): < 0.002 µg/mL | MIC (Pseudomonas aeruginosa): 32 µg/mL (≈ 29.2 µM) | MIC (Streptococcus pyogenes [7]): 32 µg/mL (≈ 29.2 µM) | MIC (Staphylococcus aureus [8]): 16 µg/mL (≈ 14.6 µM) | MIC (Escherichia coli): 16 µg/mL (≈ 14.6 µM)

CC[C@H]1OC(=O)[C@H](C)[C@@H](O[C@H]2C[C@@](C)(OC)[C@@H](OC(=O)NCc3cn(Cc4ccc(Cl)cc4)nn3)[C@H](C)O2)[C@H](C)[C@@H](O[C@@H]2O[C@H](C)C[C@H](N(C)C)[C@H]2O)[C@](C)(O)C[C@@H](C)CN(C)[C@H](C)[C@@H](OC(=O)NCc2ccccc2)[C@]1(C)O
MIC (Streptococcus pneumoniae [1]): 0.125 µg/mL (≈ 0.111 µM) | MIC (Staphylococcus aureus [2]): 0.25 µg/mL (≈ 0.221 µM) | MIC (Streptococcus pneumoniae [3]): 0.25 µg/mL (≈ 0.221 µM) | MIC (Streptococcus pneumoniae [4]): 0.25 µg/mL (≈ 0.221 µM) | MIC (Streptococcus pneumoniae [5]): 0.25 µg/mL (≈ 0.221 µM) | MIC (Streptococcus pyogenes [6]): < 0.002 µg/mL | MIC (Pseudomonas aeruginosa): 32 µg/mL (≈ 28.3 µM) | MIC (Streptococcus pyogenes [7]): 32 µg/mL (≈ 28.3 µM) | MIC (Staphylococcus aureus [8]): 16 µg/mL (≈ 14.1 µM) | MIC (Escherichia coli): 32 µg/mL (≈ 28.3 µM)

Reference: ChEMBL document CHEMBL4052714, “Synthesis and antibacterial activity of novel 4″-O-(1-aralkyl-1,2,3-triazol-4-methyl-carbamoyl) azithromycin analogs” (2017)
